Holding throughout (assay type): ADME
Series [1] concerns the target T1, CYP2B6 (Homo sapiens, UniProt P20813).
T1 sequence (P20813 whole entry): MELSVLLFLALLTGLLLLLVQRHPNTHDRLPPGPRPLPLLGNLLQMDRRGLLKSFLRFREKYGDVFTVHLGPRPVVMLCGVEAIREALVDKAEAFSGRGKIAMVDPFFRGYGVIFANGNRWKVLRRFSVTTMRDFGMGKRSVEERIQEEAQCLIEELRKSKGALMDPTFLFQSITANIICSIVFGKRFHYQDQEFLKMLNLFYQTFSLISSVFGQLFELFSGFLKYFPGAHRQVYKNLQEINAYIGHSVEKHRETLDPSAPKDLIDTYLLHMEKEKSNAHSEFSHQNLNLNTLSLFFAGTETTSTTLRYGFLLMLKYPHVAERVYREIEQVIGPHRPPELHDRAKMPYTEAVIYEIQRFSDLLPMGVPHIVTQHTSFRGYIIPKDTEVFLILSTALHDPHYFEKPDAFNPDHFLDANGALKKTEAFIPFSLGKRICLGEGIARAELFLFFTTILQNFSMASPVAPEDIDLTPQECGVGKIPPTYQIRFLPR
Kind of series: Inhibition of CYP2B6 in human liver microsomes assessed as enzyme-mediated metabolite formation at 1 uM using bupropion as substrate preincubated for 20 mins followed by substrate addition measured after 30 mins in presence of NADPH by LC-MS/MS analysis relative to control. Set-up: scale not given: the % may be the effect or the level left. As to conditions: probe bupropion, read-out: Activity.

For series [2], the target named is T2, CYP2C9 (Homo sapiens, UniProt P11712). Briefly: Inhibition of CYP2C9 in human liver microsomes assessed as enzyme-mediated metabolite formation at 0.1 uM using diclofenac as substrate preincubated for 20 mins followed by substrate addition measured after 30 mins in presence of NADPH by LC-MS/MS analysis relative to control. Set-up: scale not given: the % may be the effect or the level left. As to conditions: probe diclofenac, read-out: Activity.
T2 sequence (P11712 whole entry): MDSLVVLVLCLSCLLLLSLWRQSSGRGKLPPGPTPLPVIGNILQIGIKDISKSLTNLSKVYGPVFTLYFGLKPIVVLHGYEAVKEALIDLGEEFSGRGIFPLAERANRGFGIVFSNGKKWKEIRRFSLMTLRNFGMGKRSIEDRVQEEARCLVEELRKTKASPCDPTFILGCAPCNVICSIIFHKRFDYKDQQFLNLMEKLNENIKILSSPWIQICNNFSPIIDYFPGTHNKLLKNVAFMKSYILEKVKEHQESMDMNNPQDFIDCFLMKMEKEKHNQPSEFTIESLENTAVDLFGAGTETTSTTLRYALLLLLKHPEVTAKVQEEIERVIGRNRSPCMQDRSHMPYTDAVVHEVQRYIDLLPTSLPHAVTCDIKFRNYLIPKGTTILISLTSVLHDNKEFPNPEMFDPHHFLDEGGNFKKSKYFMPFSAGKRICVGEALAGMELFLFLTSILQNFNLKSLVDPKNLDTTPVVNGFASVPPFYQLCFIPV

Series [3] concerns the target T3, CYP2D6 (Homo sapiens, UniProt P10635). Briefly: Inhibition of CYP2D6 in human liver microsomes assessed as enzyme-mediated metabolite formation at 3 uM using dextromethorphan as substrate preincubated for 20 mins followed by substrate addition measured after 30 mins in presence of NADPH by LC-MS/MS analysis relative to control. On the set-up: scale not given: the % may be the effect or the level left. As to conditions: probe dextromethorphan, read-out: Activity.

For series [4], the target named is T4, Cytochrome P450 2B6 (Homo sapiens, UniProt P20813).
T4 sequence (P20813 whole entry): T1 sequence (P20813 whole entry)
Briefly: Inhibition of human CYP2B6 using bupropion as substrate incubated for 5 mins followed by NADPH addition measured after 30 mins by LC-MS/MS analysis.

In series [5] the target is T5, CYP3A4 (Homo sapiens, UniProt P08684). Kind of series: Inhibition of CYP3A4 in human liver microsomes assessed as enzyme-mediated metabolite formation at 0.3 uM using testosterone as substrate incubated for 5 mins followed by NADPH addition measured after 30 mins by LC-MS/MS analysis relative to control. As to conditions: probe testosterone, read-out: Activity. Set-up: scale not given: the % may be the effect or the level left.
T5 sequence (P08684 whole entry): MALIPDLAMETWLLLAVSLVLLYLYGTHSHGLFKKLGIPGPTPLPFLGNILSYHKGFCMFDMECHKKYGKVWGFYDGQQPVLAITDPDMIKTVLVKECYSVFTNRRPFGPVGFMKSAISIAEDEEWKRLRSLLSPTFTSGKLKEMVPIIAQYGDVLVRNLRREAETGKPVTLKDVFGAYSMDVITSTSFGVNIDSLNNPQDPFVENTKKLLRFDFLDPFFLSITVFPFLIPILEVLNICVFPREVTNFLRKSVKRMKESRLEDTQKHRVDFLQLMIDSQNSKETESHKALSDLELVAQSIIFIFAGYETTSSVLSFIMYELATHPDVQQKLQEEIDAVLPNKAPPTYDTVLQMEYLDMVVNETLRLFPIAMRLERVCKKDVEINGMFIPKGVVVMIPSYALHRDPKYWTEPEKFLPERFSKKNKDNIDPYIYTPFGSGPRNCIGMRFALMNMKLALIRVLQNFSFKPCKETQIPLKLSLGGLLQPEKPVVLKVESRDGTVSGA

Series [6] has as its target T3, CYP2D6. Kind of series: Inhibition of CYP2D6 in human liver microsomes assessed as enzyme-mediated metabolite formation at 3 uM using dextromethorphan as substrate incubated for 5 mins followed by NADPH addition measured after 30 mins by LC-MS/MS analysis relative to control. On the set-up: scale not given: the % may be the effect or the level left. As to conditions: probe dextromethorphan, read-out: Activity.

Series [7] concerns the target T1, CYP2B6. Briefly: Inhibition of CYP2B6 in human liver microsomes assessed as enzyme-mediated metabolite formation at 1 uM using bupropion as substrate incubated for 5 mins followed by NADPH addition measured after 30 mins by LC-MS/MS analysis relative to control. On the set-up: scale not given: the % may be the effect or the level left. As to conditions: probe bupropion, read-out: Activity.

The target in series [8] is T2, CYP2C9. Kind of series: Inhibition of CYP2C9 in human liver microsomes assessed as enzyme-mediated metabolite formation at 0.3 uM using diclofenac as substrate incubated for 5 mins followed by NADPH addition measured after 30 mins by LC-MS/MS analysis relative to control. As to conditions: probe diclofenac, read-out: Activity. On the set-up: scale not given: the % may be the effect or the level left.

Series [9] concerns the target T5, CYP3A4. Briefly: Inhibition of CYP3A4 in human liver microsomes assessed as enzyme-mediated metabolite formation at 3 uM using midazolam as substrate preincubated for 20 mins followed by substrate addition measured after 30 mins in presence of NADPH by LC-MS/MS analysis relative to control. Set-up: scale not given: the % may be the effect or the level left. As to conditions: probe midazolam, read-out: Activity.

The target of series [10] is T6, CYP1A2 (Homo sapiens, UniProt P05177).
T6 sequence (P05177 whole entry): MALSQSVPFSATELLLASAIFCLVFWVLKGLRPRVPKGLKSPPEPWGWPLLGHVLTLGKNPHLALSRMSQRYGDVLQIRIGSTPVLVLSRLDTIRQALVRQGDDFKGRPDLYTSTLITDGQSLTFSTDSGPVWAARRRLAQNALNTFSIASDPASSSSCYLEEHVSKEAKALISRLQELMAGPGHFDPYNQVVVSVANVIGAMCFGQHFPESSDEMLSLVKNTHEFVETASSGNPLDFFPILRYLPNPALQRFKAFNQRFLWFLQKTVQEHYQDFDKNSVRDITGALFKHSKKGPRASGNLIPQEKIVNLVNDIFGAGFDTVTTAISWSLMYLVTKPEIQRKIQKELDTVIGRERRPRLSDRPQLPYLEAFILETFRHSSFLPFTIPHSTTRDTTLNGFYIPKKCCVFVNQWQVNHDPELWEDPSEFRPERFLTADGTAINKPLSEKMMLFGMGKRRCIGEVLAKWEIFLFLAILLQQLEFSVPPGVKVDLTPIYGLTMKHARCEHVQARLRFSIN
Kind of series: Inhibition of CYP1A2 in human liver microsomes assessed as enzyme-mediated metabolite formation at 1 uM using phenacetin as substrate preincubated for 20 mins followed by substrate addition measured after 30 mins in presence of NADPH by LC-MS/MS analysis relative to control. Set-up: scale not given: the % may be the effect or the level left. As to conditions: probe phenacetin, read-out: Activity.

In series [11] the target is Cytochrome P450 3A4 (Homo sapiens, UniProt P08684). Kind of series: Inhibition of CYP3A4 in human liver microsomes using midazolam as substrate preincubated for 20 mins followed by substrate addition measured after 30 mins in presence of NADPH by LC-MS/MS analysis.
Chain of Cytochrome P450 3A4 (P08684 whole entry): as the sequence (P08684 whole entry) above
Series [12] has as its target T5, CYP3A4. Kind of series: Inhibition of CYP3A4 in human liver microsomes assessed as enzyme-mediated metabolite formation at 3 uM using midazolam as substrate incubated for 5 mins followed by NADPH addition measured after 30 mins by LC-MS/MS analysis relative to control. On the set-up: scale not given: the % may be the effect or the level left. As to conditions: probe midazolam, read-out: Activity.

For series [13], the target named is T3, CYP2D6. Briefly: Inhibition of CYP2D6 in human liver microsomes assessed as enzyme-mediated metabolite formation at 10 uM using dextromethorphan as substrate incubated for 5 mins followed by NADPH addition measured after 30 mins by LC-MS/MS analysis relative to control. Set-up: scale not given: the % may be the effect or the level left. As to conditions: probe dextromethorphan, read-out: Activity.

In series [14] the target is T5, CYP3A4. Kind of series: Inhibition of CYP3A4 in human liver microsomes assessed as enzyme-mediated metabolite formation at 0.3 uM using testosterone as substrate preincubated for 20 mins followed by substrate addition measured after 30 mins in presence of NADPH by LC-MS/MS analysis relative to control. On the set-up: scale not given: the % may be the effect or the level left. As to conditions: probe testosterone, read-out: Activity.

SMILES strings stand for the structures.

T3 sequence (P10635 whole entry): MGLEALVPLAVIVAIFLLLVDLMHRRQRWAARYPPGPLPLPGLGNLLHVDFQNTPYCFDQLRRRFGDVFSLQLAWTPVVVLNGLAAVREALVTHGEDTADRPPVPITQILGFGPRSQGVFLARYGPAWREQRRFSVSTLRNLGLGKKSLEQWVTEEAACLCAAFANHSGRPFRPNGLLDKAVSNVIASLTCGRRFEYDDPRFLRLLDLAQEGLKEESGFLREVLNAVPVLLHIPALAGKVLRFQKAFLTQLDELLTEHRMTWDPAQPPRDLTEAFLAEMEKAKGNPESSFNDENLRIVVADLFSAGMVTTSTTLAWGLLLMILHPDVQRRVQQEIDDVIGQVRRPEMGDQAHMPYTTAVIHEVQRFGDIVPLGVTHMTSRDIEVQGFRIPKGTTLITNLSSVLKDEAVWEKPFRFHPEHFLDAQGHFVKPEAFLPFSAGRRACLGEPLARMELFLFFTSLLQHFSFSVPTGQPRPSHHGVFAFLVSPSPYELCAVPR

Regarding `CCCCCCCC(=O)CCc1ccc(O)c(OC)c1`, the results for the activity at 0.5 h, 1 µM in series [1], in series [7] and in [10] were 79%, 63.2% and 82.1%, respectively. Moreover, the activity at 0.5 h, 0.1 µM in [2] was found to be 76%. In addition, the activity at 0.5 h, 3 µM in series [3] amounted to 103%; in series [6], 74.6%; in series [9], 103%; in [12], 77.4%. Also, the IC50 in series [4] was 6.2 µM; in series [11] it was greater than 30 µM. Besides, the “inhibition (INH)” value in series [4] (human, 0.5 h) is listed as “Dose-dependent effect”. Also, the activity at 0.5 h, 0.3 µM in series [5] is 75.2%; in [8] it was 93.6%; in series [14], 87.4%. Further, the activity at 0.5 h, 10 µM in series [13] stood at 60.4%.

(Values after ChEMBL document CHEMBL4007467, “Effects of 6-paradol, an unsaturated ketone from gingers, on cytochrome P450-mediated drug metabolism” (Bioorg Med Chem Lett, 2017).)
